Values quoted from earlier work, collected in patent US20060100182A1, “Pharmaceutical compositions for the treatment of urinary incontinence” (priority 2002, published 2006).
Counter-ions that a name gives are not always drawn.

- systemic bioavailability (oral route, hepatic first-pass effect): ~6%
- maximum plasmatic levels (oral route, recommended doses, 5 mg tablets): 8 to 18 ng/mL
- elimination half-life (statutory information DITROPAN, Vidal 2001): 2 h
SMILES: CCN(CC)CC#CCOC(=O)C(O)(c1ccccc1)C1CCCCC1 (stereo not drawn) [oxybutynin, 4-(diethylamino)-2-butynyl acetate ∝-cyclohexyl ∝-hydroxyphenyl hydrochloride]
